Literature values, collected in publication PMC8978187, “Feasibility, Biodistribution, and Preliminary Dosimetry in Peptide-Targeted Radionuclide Therapy of Diverse Adenocarcinomas Using ^177Lu-FAP-2286: First-in-Humans Results” (Journal of Nuclear Medicine, 2022).
Like-named read-outs stand apart in the source and are kept apart here.

Columns and labels:
tumor = details: compared with ^177Lu-FAP-2286
From the text: In our patient cohort, FAP expression was confirmed in these malignancies on PET/CT using ^68Ga-FAP-2286 or ^68Ga-FAPI-04.

[1] = patients
From the text: These findings were further corroborated by dosimetric studies.

For `N#C[C@@H]1CCCN1C(=O)CNC(=O)c1ccnc2ccc(OCCCN3CCN(C(=O)CN4CCN(CC(=O)O)CCN(CC(=O)O)CCN(CC(=O)O)CC4)CC3)cc12` [FAPI-02], the “tumor washout and tumor retention time” value (tumor) is listed as “earlier tumor washout and a correspondingly shorter tumor retention time”.
In the case of `N#C[C@@H]1CC(F)(F)CN1C(=O)CNC(=O)c1ccnc2ccc(OCCCN3CCN(C(=O)CN4CCN(CC(=O)O)CCN(CC(=O)O)CCN(CC(=O)O)CC4)CC3)cc12` [FAPI-04], the “tumor washout and tumor retention time” value (tumor) is given as “earlier tumor washout and a correspondingly shorter tumor retention time”.
In the case of `O=C([O-])CN1CCN(CC(=O)[O-])CCN(CC(=O)NCC2CCC(C(=O)N[C@@H](Cc3ccc4ccccc4c3)C(=O)NCCCC[C@H](NC(=O)N[C@@H](CCC(=O)O)C(=O)O)C(=O)O)CC2)CCN(CC(=O)[O-])CC1.[177Lu+3]` (some centres unmarked) [^177Lu-PSMA-617], the “bone marrow absorbed dose” value [1] is given as 0.03 Gy/GBq, the “effective half-life in the kidneys” value [1] is given as 42 h and the “effective half-life in the whole body” value [1] is given as 40 h. The kidney absorbed dose [1] was 0.99 Gy/GBq, the whole-body absorbed dose [1] was 0.04 Gy/GBq and the “kidney absorbed dose, range” value ([1]; range) was 0.45–1.6 Gy/GBq. The “absorbed dose in bone metastases” value ([1]; reported by Kulkarni et al.) was 2.9 Gy/GBq, the “absorbed dose in bone metastases” value ([1]; reported by Violet et al.) was 5.3 Gy/GBq and the “absorbed dose in bone metastases, range” value ([1]; reported by Violet et al., range) was 0.4–10.7 Gy/GBq.
